Source: patent US20060147511A1, “Liposomal glucocorticoids” (priority 2002, published 2006)

Assays:
[1] = tested on: Antigen-induced arthritis; assay: Antigen-induced arthritis in rats, determination of joint swelling; format: in vivo; conditions: 0.375 mg per kg body weight
Experimental: (§1) Antigen-induced arthritis was provoked in test animals (rats) according to Buchner (“Behandlung der antigeninduzierten Arthritis der Ratte mit Anti-Makrophagenprinzipien und monoklonalen Anti-CD4 Antikörpern”, Ph.D. thesis 1996, Friedrich-Alexander University Erlangen-Nuremberg, Germany, p. 129).
(§2) Arthritis was provoked on day 0 according to Buchner by intra-articular injection of the antigen into the synovial gap in the right knee. The arthritic animals were treated intravenously with liposomal dexamethasone phosphate (formulation A, 3.75 mg/kg) 6, 24 and 48 hours after induction of arthritis. Free dexamethasone phosphate (formulation K, likewise 3.75 mg/kg) and physiological salt solution (saline) were used as controls. The effect of sample administration was established using the following parameters: • determination of joint swelling (cf., FIG. 1)
Arthritis was provoked in rats in analogy to Example 3, and the rats were treated with the following formulations containing only one tenth of the dexamethasone phosphate dose specified in Example 3:
In analogy to Example 3, antigen-induced arthritis was provoked in the test animals. Arthritis was provoked on day 0 by intra-articular injection of the antigen into the synovial gap in the right knee. […]

[2] = tested on: Antigen-induced arthritis; assay: Antigen-induced arthritis in rats, histological examination of joint inflammation and joint cartilage destruction; format: in vivo; conditions: for Degree of cartilage destruction / Degree of joint inflammation: 3.75 mg/kg intravenously 6, 24 and 48 hours after induction, scale 0: no changes, 6: massive changes compared to healthy knee
Experimental: as §1, §2
histological examination of inflammation parameters and of joint cartilage destruction parameters (cf. FIG. 2 and Table 2)
Degree of joint cartilage destruction and joint inflammation of arthritic animals after treatment
0: no changes compared to healthy knee
In analogy to Example 3, antigen-induced arthritis was provoked in the test animals. Arthritis was provoked on day 0 by intra-articular injection of the antigen into the synovial gap in the right knee. The arthritic animals were treated intravenously with liposomal dexamethasone phosphate (formulation B, C, 3.75 mg/kg each time, according to Table 4) 6, 24 and 48 hours after induction of arthritis. Free dexamethasone phosphate (formulation K, likewise 3.75 mg/kg) and physiological salt solution (saline) were used as controls. The effect of sample administration was established using the following parameters: • determination of joint swelling (cf., FIG. 5)
histological examination of inflammation parameters and of joint cartilage destruction parameters (cf., FIG. 2 and Table 5)

C[C@@H]1C[C@H]2[C@@H]3CCC4=CC(=O)C=C[C@]4(C)[C@@]3(F)[C@@H](O)C[C@]2(C)[C@@]1(O)C(=O)COP(=O)(O)O [Formulation K, dexamethasone phosphate]
Suppression of antigen-induced arthritis [1]: developed all symptoms of the animal model after short amelioration | Histological sections of arthritic knee joints (FIG. 2), finding ([2]; Hematoxylin/eosin staining, magnified 92fold): massive inflammation and destruction of cartilage and bone | Degree of cartilage destruction ([2]; Table 2, rats): 2.75 | Degree of joint inflammation ([2]; Table 2, rats): 3.5 | Degree of cartilage destruction ([2]; Table 5, rats): 2.75 | Degree of joint inflammation ([2]; Table 5, rats): 3.5 | Joint cartilage destruction and inflammatory reactions after treatment (in words) ([2]; rats, 3.75 mg/kg intravenously): considerably less effective
